Source: ChEMBL document CHEMBL1949598, “Synthesis, cytostatic activity and ADME properties of C-5 substituted and N-acyclic pyrimidine derivatives” (Bioorg Med Chem Lett, 2012)
The source made the active and inactive calls. The rule behind the calls is not given here.

Experiments:
[1] = test system: HCT-116; assay: Cytotoxicity against human HCT116 cells up to 100 uM after 72 hrs by MTT assay; format: functional, cell-based
[2] = test system: MCF7; assay: Cytotoxicity against human MCF7 cells up to 100 uM after 72 hrs by MTT assay; format: functional, cell-based
[3] = test system: NCI-H460; assay: Cytotoxicity against human H460 cells up to 100 uM after 72 hrs by MTT assay; format: functional, cell-based
[4] = Metabolic stability in human plasma assessed as compound remaining at 5 uM after 24 hrs by LC/MS/MS analysis; format: ADME, cell-free; settings: read-out: Stability
[5] = Metabolic stability in mouse liver microsomes assessed as compound remaining at 1 uM after 60 mins by LC/MS/MS analysis; format: ADME, Microsome; settings: read-out: Stability
[6] = Half life in mouse liver microsomes at 1 uM
[7] = Metabolic stability in human liver microsomes assessed as compound remaining at 1 uM after 60 mins by LC/MS/MS analysis; format: ADME, Microsome; settings: read-out: Stability
[8] = Metabolic stability in rat liver microsomes assessed as compound remaining at 1 uM after 60 mins by LC/MS/MS analysis; format: ADME, Microsome; settings: read-out: Stability
[9] = test system: MDR1 (P-gp), human; assay: Apparent permeability from apical to basolateral side in MDCK2 cells expressing human MDR1 at 10 uM after 60 mins; format: ADME, cell-based, Canis lupus familiaris, MDCK-II; settings: dog, MDCK-MDR1
[10] = Metabolic stability in mouse plasma assessed as compound remaining at 5 uM after 24 hrs by LC/MS/MS analysis; format: ADME, cell-free; settings: read-out: Stability
[11] = test system: MDR1 (P-gp), human; assay: Apparent permeability from basolateral to apical side in MDCK2 cells expressing human MDR1 at 10 uM after 60 mins; format: ADME, cell-based, Canis lupus familiaris, MDCK-II; settings: dog, MDCK-MDR1
[12] = Half life in human liver microsomes at 1 uM
[13] = Metabolic stability in rat plasma assessed as compound remaining at 5 uM after 24 hrs by LC/MS/MS analysis; format: ADME, cell-free; settings: read-out: Stability
[14] = (§1) Efflux ratio of apparent permeability from apical to basolateral side over basolateral to apical side in MDCK2 cells expressing human MDR1 in presence of P-gp inhibitor elacridar; format: ADME, cell-based, Canis lupus familiaris, MDCK-II; settings: dog, mdck-ii
[15] = test system: MDR1 (P-gp), human; assay: Efflux ratio of apparent permeability from apical to basolateral over basolateral to apical side of MDCK2 cells expressing human MDR1 gene; format: ADME, cell-based, Canis lupus familiaris, MDCK-II; settings: dog, MDCK-MDR1
[16] = Half life in rat liver microsomes at 1 uM
[17] = Half life in rat plasma at 5 uM; format: ADME
[18] = Half life in mouse plasma at 5 uM; format: ADME
[19] = Half life in human plasma at 5 uM; format: ADME
[20] = test system: MCF7; assay: cells; settings: Homo sapiens, MCF7, 72 h
Description: Cytotoxicity against human MCF7 cells after 72 hrs by MTT assay

[21] = test system: HCT-116; assay: cells; settings: Homo sapiens, HCT-116, 72 h
[22] = test system: NCI-H460; assay: Cytotoxicity against human H460 cells after 72 hrs by MTT assay; format: functional, cell-based; settings: NCI-H460, 72 h
[23] = test system: HCT-116; assay: Cell cycle arrest in human HCT116 cells assessed as accumulation of cells at G1 phase at 5 uM after 24 hrs using propidium iodide staining by FACS analysis (reference value: 32.5%); format: functional
[24] = test system: HCT-116; assay: Cell cycle arrest in human HCT116 cells assessed as accumulation of cells at G1 phase at 1 uM after 24 hrs using propidium iodide staining by FACS analysis (reference value: 32.5%); format: functional
[25] = test system: HCT-116; assay: Cell cycle arrest in human HCT116 cells assessed as accumulation of cells at S phase at 5 uM after 24 hrs using propidium iodide staining by FACS analysis (reference value: 50%); format: functional
[26] = test system: HCT-116; assay: Cell cycle arrest in human HCT116 cells assessed as accumulation of cells at S phase at 1 uM after 48 hrs using propidium iodide staining by FACS analysis (reference value: 31%); format: functional
[27] = test system: HCT-116; assay: Cell cycle arrest in human HCT116 cells assessed as accumulation of cells at G2/M phase at 5 uM after 24 hrs using propidium iodide staining by FACS analysis (reference value: 17.4%); format: functional
[28] = test system: HCT-116; assay: Cell cycle arrest in human HCT116 cells assessed as accumulation of cells at sub-G1 phase at 5 uM after 48 hrs using propidium iodide staining by FACS analysis (reference value: 1.5%); format: functional
[29] = test system: HCT-116; assay: Cell cycle arrest in human HCT116 cells assessed as accumulation of cells at G2/M phase at 5 uM after 48 hrs using propidium iodide staining by FACS analysis (reference value: 26.6%); format: functional
[30] = test system: HCT-116; assay: Cell cycle arrest in human HCT116 cells assessed as accumulation of cells at G2/M phase at 1 uM after 24 hrs using propidium iodide staining by FACS analysis (reference value: 17.4%); format: functional
[31] = test system: HCT-116; assay: Cell cycle arrest in human HCT116 cells assessed as accumulation of cells at G1 phase at 1 uM after 48 hrs using propidium iodide staining by FACS analysis (reference value: 42.3%); format: functional
[32] = test system: MDR1 (P-gp), human; assay: as §1; format: ADME, cell-based, Canis lupus familiaris, MDCK-II; settings: dog, MDCK-MDR1, with elacridar (P-gp inhibitor; concentration not stated)
[33] = test system: HCT-116; assay: Cell cycle arrest in human HCT116 cells assessed as accumulation of cells at sub-G1 phase at 5 uM after 24 hrs using propidium iodide staining by FACS analysis (reference value: 1.8%); format: functional
[34] = test system: HCT-116; assay: Cell cycle arrest in human HCT116 cells assessed as accumulation of cells at G2/M phase at 1 uM after 48 hrs using propidium iodide staining by FACS analysis (reference value: 26.6%); format: functional
[35] = test system: HCT-116; assay: Cell cycle arrest in human HCT116 cells assessed as accumulation of cells at sub-G1 phase at 1 uM after 24 hrs using propidium iodide staining by FACS analysis (reference value: 1.8%); format: functional
[36] = test system: HCT-116; assay: Cell cycle arrest in human HCT116 cells assessed as accumulation of cells at sub-G1 phase at 1 uM after 48 hrs using propidium iodide staining by FACS analysis (reference value: 1.5%); format: functional
[37] = test system: HCT-116; assay: Cell cycle arrest in human HCT116 cells assessed as accumulation of cells at G1 phase at 5 uM after 48 hrs using propidium iodide staining by FACS analysis (reference value: 42.3%); format: functional
[38] = test system: HCT-116; assay: Cell cycle arrest in human HCT116 cells assessed as accumulation of cells at S phase at 5 uM after 48 hrs using propidium iodide staining by FACS analysis (reference value: 31%); format: functional
[39] = test system: HCT-116; assay: Cell cycle arrest in human HCT116 cells assessed as accumulation of cells at S phase at 1 uM after 24 hrs using propidium iodide staining by FACS analysis (reference value: 50%); format: functional

COc1ncc2c(n1)OCC2
growth inhibition (GI) [1]: inactive
growth inhibition (GI) [2]: inactive
growth inhibition (GI) [3]: inactive

COCn1cc(CCO)c(=O)[nH]c1=O
growth inhibition (GI) [1]: inactive
growth inhibition (GI) [2]: inactive
growth inhibition (GI) [3]: inactive

COCn1cc(CCO)c(=O)n(COC)c1=O
growth inhibition (GI) [1]: inactive
growth inhibition (GI) [2]: inactive
growth inhibition (GI) [3]: inactive

Cc1nc(Cl)nc(Cl)c1CCCl
remaining at 24 h, 5 µM [4]: 20%
remaining at 1 h, 1 µM [5]: 41%
half-life at 1 µM [6]: 0.767 h
remaining at 1 h, 1 µM [7]: 76%
remaining at 1 h, 1 µM [8]: 74%
Papp A→B at 1 h, 10 µM [9]: 35.8 ×10⁻⁶ cm/s
remaining at 24 h, 5 µM [10]: 22%
Papp B→A at 1 h, 10 µM [11]: 20.9 ×10⁻⁶ cm/s
half-life at 1 µM [12]: 2.42 h
remaining at 24 h, 5 µM [13]: 3%
Ratio [14]: 1.4
efflux ratio [15]: 0.6
half-life at 1 µM [16]: 2.23 h
half-life at 5 µM [17]: 3.07 h
half-life at 5 µM [18]: 7.97 h
half-life at 5 µM [19]: 10 h

COc1nc(Cl)ncc1CCF
growth inhibition (GI) [1]: inactive
growth inhibition (GI) [2]: inactive
growth inhibition (GI) [3]: inactive

COCOCCc1cnc(OC)nc1OC
growth inhibition (GI) [1]: Active
IC50 [20]: > 100 µM
growth inhibition (GI) [2]: Active
growth inhibition (GI) [3]: Active
IC50 [21]: 75 µM
IC50 [22]: > 100 µM

COc1nc(Cl)ncc1CCO
growth inhibition (GI) [1]: inactive
growth inhibition (GI) [2]: inactive
growth inhibition (GI) [3]: inactive

COCn1cc(CCF)c(=O)[nH]c1=O
growth inhibition (GI) [1]: inactive
growth inhibition (GI) [2]: inactive
growth inhibition (GI) [3]: inactive

CC(=O)OCCc1cnc(Cl)nc1Cl
growth inhibition (GI) [1]: Active
IC50 [20]: 30 µM
growth inhibition (GI) [2]: Active
growth inhibition (GI) [3]: Active
IC50 [21]: 29 µM
IC50 [22]: 31 µM

ClCCc1cnc(Cl)nc1Cl
Activity [23]: 7.8%
remaining at 24 h, 5 µM [4]: 0%
Activity [24]: 33.5%
remaining at 1 h, 1 µM [5]: 33%
half-life at 1 µM [6]: 0.567 h
remaining at 1 h, 1 µM [7]: 65%
remaining at 1 h, 1 µM [8]: 73%
Activity [25]: 14.6%
Papp A→B at 1 h, 10 µM [9]: 20.8 ×10⁻⁶ cm/s
remaining at 24 h, 5 µM [10]: 0%
Activity [26]: 31.5%
Papp B→A at 1 h, 10 µM [11]: 25.8 ×10⁻⁶ cm/s
Activity [27]: 77.6%
half-life at 1 µM [12]: 1.73 h
Activity [28]: 8.5%
Activity [29]: 60.7%
Activity [30]: 17.2%
remaining at 24 h, 5 µM [13]: 0%
Activity [31]: 41.7%
IC50 [20]: 10 µM
efflux ratio [32]: 1.2
IC50 [21]: 0.8 µM
Activity [33]: 8.1%
Activity [34]: 26.7%
IC50 [22]: 3 µM
Activity [35]: 2.5%
efflux ratio [15]: 1.2
half-life at 1 µM [16]: 2.23 h
half-life at 5 µM [17]: 0.4 h
Activity [36]: 1.7%
Activity [37]: 24.6%
half-life at 5 µM [18]: 1.52 h
Activity [38]: 14.8%
half-life at 5 µM [19]: 2.55 h
Activity [39]: 48.8%

Clc1ncc2c(n1)OCC2
growth inhibition (GI) [1]: Active
IC50 [20]: 45 µM
growth inhibition (GI) [2]: Active
growth inhibition (GI) [3]: Active
IC50 [21]: 13 µM
IC50 [22]: 22 µM

CC(=O)OCCc1c[nH]c(=O)[nH]c1=O
growth inhibition (GI) [1]: inactive
growth inhibition (GI) [2]: inactive
growth inhibition (GI) [3]: inactive

COCn1c(=O)[nH]cc(CCO)c1=O
growth inhibition (GI) [1]: inactive
growth inhibition (GI) [2]: inactive
growth inhibition (GI) [3]: inactive

COCn1cc(CCOC(C)=O)c(=O)n(COC)c1=O
growth inhibition (GI) [1]: inactive
growth inhibition (GI) [2]: inactive
growth inhibition (GI) [3]: inactive

COCOCCc1cn(COC)c(=O)nc1OC
growth inhibition (GI) [1]: inactive
growth inhibition (GI) [2]: inactive
growth inhibition (GI) [3]: inactive

COCn1c(=O)[nH]cc(CCOC(C)=O)c1=O
growth inhibition (GI) [1]: inactive
growth inhibition (GI) [2]: inactive
growth inhibition (GI) [3]: inactive

COc1ncc(CCO)c(OC)n1
growth inhibition (GI) [1]: inactive
growth inhibition (GI) [2]: inactive
growth inhibition (GI) [3]: inactive

O=c1[nH]cc(F)c(=O)[nH]1 [FLUOROURACIL]
IC50 [20]: 14 µM
IC50 [22]: 3 µM

OCCc1cnc(Cl)nc1Cl
growth inhibition (GI) [1]: inactive
growth inhibition (GI) [2]: inactive
growth inhibition (GI) [3]: inactive

COCn1cc(CCOC(C)=O)c(=O)[nH]c1=O
growth inhibition (GI) [1]: inactive
growth inhibition (GI) [2]: inactive
growth inhibition (GI) [3]: inactive

COCn1cc(CCO)c(OC)nc1=O
growth inhibition (GI) [1]: inactive
growth inhibition (GI) [2]: inactive
growth inhibition (GI) [3]: inactive
